From patent publication US9365540B2, “Benzimidazole derivatives as MCH receptor antagonists” (Takeda Pharmaceutical Company Limited, priority 2012, dated 2016)

How the values were obtained:
[1] = target: T1, HERG (Homo sapiens, UniProt Q12809); experiment: HERG inhibitory activity, whole-cell patch clamp; type: cell-based; conditions: 10 μM test compound; HERG.T.HEK cells; peak tail current
T1 construct: host or cells: HERG.T.HEK (HEK cells, G418 selection)
From the text: Evaluation of HERG Inhibitory Activity
MEM medium, MEM nonessential amino acid solution, sodium pyruvate solution and G418 sulfate solution (Geneticin) were purchased from Invitrogen Corporation (Carlsbad, Calif.). Bovine serum albumin (BSA, Fatty Acid Free) was a product of Wako Pure Chemical Industries, Ltd. (Osaka, Japan). Fetal calf serum (FCS) was a product of Trau Scientific Ltd. (Melbourne, Australia).
As HERG-expressing cell HERG.T.HEK, the cell obtained from Wisconsin ALUMNI Research Foundation was used. HERG.T.HEK was maintained and passaged at 37° C. in the presence of 5% CO2 using an MEM medium containing 10% FCS, 1 mM MEM nonessential amino acid, 1 mM sodium pyruvate and 500 μg/ml Geneticin.
80-90% confluent cells were collected by a trypsin treatment and plated on an IVF dish (Falcon, Franklin Lakes, N.J.). […] A preliminary stimulation was applied and the HERG electric current value (peak tail current) was measured when the electric current waveform was stabilized.
For measurement of the HERG electric current with addition of the test compound, the cells were first perfused with the extracellular fluid and, when the waveform was stabilized, the cells were perfused with an extracellular fluid containing 10 μM of a test compound. When the electric current waveform was stabilized under respective perfuse conditions, the HERG electric current was measured.
The HERG electric current inhibitory rate (%) of the test compound was calculated with the HERG electric current value without addition of the test compound as 100%.

[2] = target: T2, human MCH receptor 1 (MCHR1) (Homo sapiens, UniProt Q99705); experiment: human MCH receptor 1 (MCHR1) competitive binding assay with [125I]-MCH(4-19); conditions: test compound 0.1 μM, human MCHR1-expressing CHO cell membrane fraction, read-out: Binding inhibition rate % (0.1 μM)
T2 construct: expressed in transfected cells; host or cells: CHO cell clone 57 (membrane fraction)
T2 sequence (Q99705 whole entry): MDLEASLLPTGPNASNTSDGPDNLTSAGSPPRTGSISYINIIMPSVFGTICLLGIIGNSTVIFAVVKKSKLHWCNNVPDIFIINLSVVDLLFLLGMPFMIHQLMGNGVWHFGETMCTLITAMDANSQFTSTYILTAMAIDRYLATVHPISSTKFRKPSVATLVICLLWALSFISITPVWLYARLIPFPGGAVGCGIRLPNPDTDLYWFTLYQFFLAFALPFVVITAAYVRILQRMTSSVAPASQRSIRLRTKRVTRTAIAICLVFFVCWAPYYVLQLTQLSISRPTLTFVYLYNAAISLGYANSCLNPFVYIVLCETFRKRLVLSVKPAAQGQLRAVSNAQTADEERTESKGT
Procedure, shortened: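 Membranes from CHO cells expressing human MCHR1 incubated with [125I]-MCH(4-19) and test compound in 20 mM Tris-HCl pH 7.5/5 mM EDTA with protease inhibitors, 1 hr at room temperature. Bound radioactivity collected on PEI-treated GF/C filters; % inhibition at 0.1 μM compound, nonspecific binding set with cold MCH(1-19).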

[3] = system: male diet-induced obese F344/Jcl rats; experiment: Anorectic effect in male diet-induced obese F344/Jcl rats; type: in vivo, rat; conditions: Rattus norvegicus, po, 48 h, 5 mg/mL suspension at 2 mL/kg, two administrations, food intake for 2 days vs control group, read-out: Food intake suppression rate (%)
Experimental: Evaluation of Anorectic Effect Using Male Diet-Induced Obese F344/Jcl Rats
Male diet-induced obese F344/Jcl rats (44-50 weeks old) fed with a high-fat diet (D12451: Research Diets) from 5 weeks old were used. From before the start of experiment, the rats were singly housed, given a powder high-fat diet (D12451M: Research Diets), and habituated to oral administration with tap water. The food intake from the evening of the day before the start of experiment to the next morning was measured, and the rats were grouped based on both the food intake and the body weight of the previous day. In the evening of the day of the start of experiment and the next day, 0.5% methylcellulose solution was orally administered to the control group, and 0.5% methylcellulose suspension (5 mg/mL) of the test compound was orally administered to the compound administration group at 2 mL/kg (6 per group for both control group and compound administration group). The food intake for 2 days from the initial administration was measured. The food intake inhibition rate of each compound administration group to the control group was calculated.

T1 sequence (Q12809 whole entry): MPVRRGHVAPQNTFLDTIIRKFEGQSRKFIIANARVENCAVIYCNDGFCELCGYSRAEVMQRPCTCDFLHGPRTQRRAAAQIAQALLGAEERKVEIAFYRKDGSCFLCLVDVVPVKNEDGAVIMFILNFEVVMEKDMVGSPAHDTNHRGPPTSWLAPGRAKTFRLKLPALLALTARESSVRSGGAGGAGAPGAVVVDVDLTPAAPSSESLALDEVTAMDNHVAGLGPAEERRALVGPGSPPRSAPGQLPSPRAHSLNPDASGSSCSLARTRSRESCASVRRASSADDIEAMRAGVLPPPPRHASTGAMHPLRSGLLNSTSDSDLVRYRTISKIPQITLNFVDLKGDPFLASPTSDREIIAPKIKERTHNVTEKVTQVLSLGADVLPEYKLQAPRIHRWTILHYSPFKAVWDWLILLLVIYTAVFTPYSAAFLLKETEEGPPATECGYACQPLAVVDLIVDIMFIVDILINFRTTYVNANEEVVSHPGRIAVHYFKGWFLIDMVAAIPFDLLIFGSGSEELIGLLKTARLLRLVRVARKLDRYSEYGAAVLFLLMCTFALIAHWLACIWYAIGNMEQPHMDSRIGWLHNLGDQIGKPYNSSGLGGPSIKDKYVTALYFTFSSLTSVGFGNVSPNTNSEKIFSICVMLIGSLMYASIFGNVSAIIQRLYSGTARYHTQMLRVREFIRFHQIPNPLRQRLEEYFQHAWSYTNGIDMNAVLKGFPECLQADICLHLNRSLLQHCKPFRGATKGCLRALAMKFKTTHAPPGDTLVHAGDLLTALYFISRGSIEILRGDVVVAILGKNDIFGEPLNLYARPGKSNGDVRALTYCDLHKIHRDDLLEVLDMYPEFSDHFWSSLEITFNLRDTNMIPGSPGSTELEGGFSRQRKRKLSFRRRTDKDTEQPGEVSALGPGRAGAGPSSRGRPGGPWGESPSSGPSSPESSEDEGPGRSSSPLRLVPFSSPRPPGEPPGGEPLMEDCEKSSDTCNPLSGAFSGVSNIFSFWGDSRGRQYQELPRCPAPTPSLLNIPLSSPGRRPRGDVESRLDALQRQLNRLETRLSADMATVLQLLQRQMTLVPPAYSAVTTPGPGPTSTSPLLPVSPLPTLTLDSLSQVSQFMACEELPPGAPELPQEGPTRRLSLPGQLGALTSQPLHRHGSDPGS

Row | SMILES | HERG inhibitory action (%) [1] | inhibition at 0.1 µM [2] | inhibition in vivo at 5000 µg/mL, 10 mg/kg [3]
1 | Cn1c(C2CC2)nc2ccc(-n3ccc(OCc4ccc(F)cc4)cc3=O)cc21 [Example 2, 1-(2-Cyclopropyl-1-methyl-1H-benzimidazol-6-yl)-4-((4-fluorobenzyl)oxy)pyridin-2(1H)-one] | 27.3% | 80% | 27.8%
2 | CCc1nc2ccc(-n3ccc(OCc4ccc(F)cc4)cc3=O)cc2n1C [Example 63, 1-(2-Ethyl-1-methyl-1H-benzimidazol-6-yl)-4-((4-fluorobenzyl)oxy)pyridin-2(1H)-one] | 23.0% | 74% | 45.5%
3 | Cc1nc2ccc(-n3ccc(OCc4ccc(F)cc4)cc3=O)cc2n1C [Example 254, 1-(1,2-Dimethyl-1H-benzimidazol-6-yl)-4-((4-fluorobenzyl)oxy)pyridin-2(1H)-one] | 26.4% | 57% | 38.7%
